Test results published in the supplement of paper PMC10307832.

Assays:
Assay in all cases: relative viability (nuclei count vs DMSO), 5 days (fraction); higher = more cells survive
[1] = compound: CO[C@H]1C[C@@H]2CC[C@@H](C)[C@@](O)(O2)C(=O)C(=O)N2CCCC[C@H]2C(=O)O[C@H]([C@H](C)C[C@@H]2CC[C@@H](OCCO)[C@H](OC)C2)CC(=O)[C@H](C)/C=C(\C)[C@@H](O)[C@@H](OC)C(=O)[C@H](C)C[C@H](C)/C=C/C=C/C=C/1C [Everolimus] + CC1(C)CCC(c2ccc(Cl)cc2)=C(CN2CCN(c3ccc(C(=O)NS(=O)(=O)c4ccc(N[C@H](CCN5CCOCC5)CSc5ccccc5)c(S(=O)(=O)C(F)(F)F)c4)cc3)CC2)C1 [Navitoclax] (partner 0.5 µM)
In short: (§1)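 Cells from lung cancer lines were seeded into 1536-well plates and, one day later, dosed by pin tool. Treatments were either a single drug or a fixed dose of an anchor drug with five library-drug doses (not always all listed) in √10 steps. After 5 days, nuclei were stained in a one-step fixation (final 0.05% Triton X-100, 1% formaldehyde, 1 ug/ml Hoechst) and counted on 4× images, and relative viability is the treated-to-vehicle nuclei ratio, as the median of duplicate plates.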

[2] = compound: CO[C@H]1C[C@@H]2CC[C@@H](C)[C@@](O)(O2)C(=O)C(=O)N2CCCC[C@H]2C(=O)O[C@H]([C@H](C)C[C@@H]2CC[C@@H](OCCO)[C@H](OC)C2)CC(=O)[C@H](C)/C=C(\C)[C@@H](O)[C@@H](OC)C(=O)[C@H](C)C[C@H](C)/C=C/C=C/C=C/1C [Everolimus] + C[C@@H](Oc1cc(-c2cnn(C3CCNCC3)c2)cnc1N)c1c(Cl)ccc(F)c1Cl [Crizotinib] (partner 1 µM)
In short: as §1

[3] = compound: CO[C@H]1C[C@@H]2CC[C@@H](C)[C@@](O)(O2)C(=O)C(=O)N2CCCC[C@H]2C(=O)O[C@H]([C@H](C)C[C@@H]2CC[C@@H](OCCO)[C@H](OC)C2)CC(=O)[C@H](C)/C=C(\C)[C@@H](O)[C@@H](OC)C(=O)[C@H](C)C[C@H](C)/C=C/C=C/C=C/1C [Everolimus] + Cc1cc(Nc2cc(N3CCN(C)CC3)nc(Sc3ccc(NC(=O)C4CC4)cc3)n2)n[nH]1 [Tozasertib] (partner 0.1 µM)
In short: as §1

[4] = compound: CO[C@H]1C[C@@H]2CC[C@@H](C)[C@@](O)(O2)C(=O)C(=O)N2CCCC[C@H]2C(=O)O[C@H]([C@H](C)C[C@@H]2CC[C@@H](OCCO)[C@H](OC)C2)CC(=O)[C@H](C)/C=C(\C)[C@@H](O)[C@@H](OC)C(=O)[C@H](C)C[C@H](C)/C=C/C=C/C=C/1C [Everolimus] + O=C(CCCCCCC(=O)Nc1ccccc1)NO [Vorinostat] (partner 1 µM)
In short: as §1

| Cell Line | relative viability ([1]; first compound 0.01 µM) | relative viability ([1]; first compound 0.03162 µM) | relative viability ([1]; first compound 0.1 µM) | relative viability ([1]; first compound 0.3162 µM) | relative viability ([1]; first compound 1 µM) | relative viability ([2]; first compound 0.01 µM) | relative viability ([2]; first compound 0.03162 µM) | relative viability ([2]; first compound 0.1 µM) | relative viability ([2]; first compound 0.3162 µM) | relative viability ([2]; first compound 1 µM) | relative viability ([3]; first compound 0.01 µM) | relative viability ([3]; first compound 0.03162 µM) | relative viability ([3]; first compound 0.1 µM) | relative viability ([3]; first compound 0.3162 µM) | relative viability ([3]; first compound 1 µM) | relative viability ([4]; first compound 0.01 µM) | relative viability ([4]; first compound 0.03162 µM) | relative viability ([4]; first compound 0.1 µM) | relative viability ([4]; first compound 0.3162 µM) | relative viability ([4]; first compound 1 µM) |
| --- | --- | --- | --- | --- | --- | --- | --- | --- | --- | --- | --- | --- | --- | --- | --- | --- | --- | --- | --- | --- |
| NCI-H23 | 0.556 | 0.424 | 0.44 | 0.544 | 0.557 | 0.486 | 0.33 | 0.288 | 0.398 | 0.359 | 0.396 | 0.295 | 0.299 | 0.358 | 0.217 | 0.373 | 0.31 | 0.432 | 0.369 | 0.35 |
| NCI-H520 | 0.537 | 0.454 | 0.421 | 0.535 | 0.445 | 0.478 | 0.398 | 0.426 | 0.354 | 0.353 | 0.271 | 0.28 | 0.264 | 0.222 | 0.239 | 0.455 | 0.373 | 0.439 | 0.394 | 0.387 |
| CAL-12T | 0.438 | 0.452 | 0.35 | 0.423 | 0.498 | 0.432 | 0.569 | 0.233 | 0.401 | 0.265 | 0.173 | 0.217 | 0.212 | 0.167 | 0.182 | 0.267 | 0.29 | 0.237 | 0.321 | 0.318 |
| EPLC-272H | 0.996 | 0.697 | 0.598 | 0.602 | 0.673 | 0.68 | 0.573 | 0.542 | 0.512 | 0.601 | 0.19 | 0.286 | 0.176 | 0.242 | 0.216 | 0.512 | 0.306 | 0.289 | 0.336 | 0.305 |
